Earlier results in patent US20060210638A1, “Injectable compositions of nanoparticulate immunosuppressive compounds” (Elan Pharma International Limited, priority 2005, published 2006).
Read-outs that look alike come from different tables or passages of the source.

What was measured:
[1] = for mean time-to-peak concentration (Tmax): Rapamune Oral Solution
[2] = in vitro studies
[3] = reputed
[4] = for mean clearance: IV administration
[5] = not given; remark: listed apart in the source
[6] = not given; remark: listed apart in the source
[7] = for reduction of mean AUC relative to fasted / reduction of mean Cmax relative to fasted: healthy volunteers (N=16)
[8] = 11 liver transplant patients, 15 minutes after high fat (400 kcal, 34% fat) breakfast
[9] = given immediately following the meal
[10] = high-carbohydrate meal (668 kcal, 85% carbohydrate)
[11] = high-fat meal (848 kcal, 46% fat), 15 healthy volunteers

SMILES: CO[C@H]1C[C@@H]2CC[C@@H](C)[C@@](O)(O2)C(=O)C(=O)N2CCCC[C@H]2C(=O)O[C@H]([C@H](C)C[C@@H]2CC[C@@H](O)[C@H](OC)C2)CC(=O)[C@H](C)/C=C(\C)[C@@H](O)[C@@H](OC)C(=O)[C@H](C)C[C@H](C)/C=C/C=C/C=C/1C [Sirolimus, (3S,6R,7E,9R,10R,12R,14S,15E,17E,19E,21S,23S,26R,27R ,34aS)-9,10,12,13,14,21,22,23,24,25,26,27,32,33,34,34a-hexadecahydro-9,27-dihydroxy-3-[(1 R )-2-[(1S,3R,4R)-4-hydroxy-3-methoxycyclohexyl]-1-methylethyl]-10,21-dimethoxy-6,8,12,14,20,26-hexamethyl-23,27-epoxy-3H-pyrido[2,1-c] [1,4] oxaazacyclohentriacontine-1,5,11,28,29(4H,6H,31H)-pentone]
- mean time-to-peak concentration (Tmax) ([1]; multiple oral doses, renal transplant recipients): approximately 2 hours
- mean time-to-peak concentration (Tmax) ([1]; single dose, healthy subjects): approximately 1 hour
- systemic availability ([1]; after Rapamune Oral Solution): approximately 14%
- stability when exposed to water (in words) (aqueous medium): rapidly hydrolyzes
- solubility in benzyl alcohol, chloroform, acetone, and acetonitrile (in words) (benzyl alcohol, chloroform, acetone, acetonitrile): freely soluble
- solubility in water (water): 20 micrograms per mL
- solubility in water (in words) (water): insoluble

SMILES: C=CCC1C=C(C)CC(C)CC(OC)C2OC(O)(C(=O)C(=O)N3CCCCC3C(=O)OC(C(C)=CC3CCC(O)C(O)C3)C(C)C(O)CC1=O)C(C)CC2OC (stereo not shown) [31-demethyl metabolite]
- activity relative to tacrolimus (in words) [2]: same activity as tacrolimus

SMILES: C=CC[C@@H]1/C=C(\C)C[C@H](C)C[C@H](OC)[C@H]2O[C@@](O)(C(=O)C(=O)N3CCCC[C@H]3C(=O)O[C@H](/C(C)=C/[C@@H]3CC[C@@H](O)[C@H](OC)C3)[C@H](C)[C@@H](O)CC1=O)[C@H](C)C[C@@H]2OC [Tacrolimus]
- effectiveness relative to cyclosporine [3]: 100 times
- correlation coefficient of trough concentration (Cmin) with AUC ([4]; 18 kidney transplant patients, trough 3 to 30 ng/mL at 10-12 hours post-dose): 0.93
- correlation coefficient of trough concentration (Cmin) with AUC ([4]; 24 liver transplant patients, concentration range 10 to 60 ng/mL): 0.94
- mean clearance ([4]; adult kidney transplant patients): 0.083 L/h/kg
- mean clearance ([4]; adult liver transplant patients): 0.053 L/h/kg
- mean clearance ([4]; healthy volunteers): 0.040 L/h/kg
- dose excreted unchanged in urine ([4]; in man): less than 1%
- ratio of whole blood concentration to plasma concentration, average ([5]; U.S. study): 35
- plasma protein binding ([5]; independent of concentration over 5-50 ng/mL): approximately 99%
- solubility in ethanol (in words) (ethanol): freely soluble
- solubility in methanol and chloroform (in words) (methanol and chloroform): very soluble
- solubility in water (in words) (water): practically insoluble
- clearance of tacrolimus ([6]; IV): 0.029 ± 0.009 L/h/kg
- elimination half-life based on tacrolimus concentrations ([6]; IV): 43.5 ± 11.6 h
- fecal elimination ([6]; IV): 92.4±1.0%
- mean recovery of radiolabel ([6]; IV, 6 healthy volunteers): 77.8±12.7%
- clearance of tacrolimus ([6]; oral): 0.172 ± 0.088 L/h/kg
- elimination half-life based on tacrolimus concentrations ([6]; oral): 48.4 ± 12.3 h
- fecal elimination ([6]; oral): 92.6±30.7%
- mean recovery of the radiolabel ([6]; oral): 94.9±30.7%
- urinary elimination ([6]; oral): 2.3±1.1%
- decreased AUC compared to fasted state [7, 8]: 27±18%
- decreased Cmax compared to fasted state [7, 8]: 50±19%
- reduction of mean AUC relative to fasted ([7]; 1.5 hours following the meal): 39%
- reduction of mean Cmax relative to fasted ([7]; 1.5 hours following the meal): 63%
- reduction of mean AUC relative to fasted [7, 9]: 39%
- reduction of mean Cmax relative to fasted [7, 9]: 71%
- decrease of mean AUC [7, 10]: 28%
- decrease of mean Cmax [7, 10]: 65%
- Tmax lengthened [7, 11]: 5 fold
- decrease of mean AUC [7, 11]: 37%
- decrease of mean Cmax [7, 11]: 77%
